{
  "source": "patent US20160002665A1",
  "about": "“[…] MALE STERILITY IN COMPOSITAE” (priority 2013, published 2016)",
  "key": {"[1]": {"tested_on": "mutant lettuce plant (Lactuca sativa), having a mutated version of the OPR3 gene", "assay": "Reversal of male sterility by spraying young flower buds of homozygous OPR3 mutant lettuce", "type": "in vivo", "conditions": "for restoration of male fertility in F2 generation: F2 of cross NCIMB 42060 x wild-type lettuce, treatment as described in Example 1; for seed production through selfing: inflorescences sprayed with 200 μM solution, compared with mock-treated control plants (FIG. 1)", "text": "A mutant lettuce plant (Lactuca sativa), having a mutated version of the OPR3 gene, was obtained by means of chemical mutagenesis and subsequent TILLING screening of about 3,000 M2 plants.\nPhenotypically this mutant lettuce plant was indistinguishable from wild-type lettuce plants, when the mutation was present in a heterozygous state. […] The few pollen grains that developed in such homozygous mutants were not functional.\nFrom the early bolting stage the inflorescences were sprayed 5 times per week, for a total of 3 weeks."}, "[2]": {"tested_on": "mutant endive plant (Cichorium endivia), having a mutated version of the OPR3 gene", "assay": "Reversal of male sterility and pale flower color by treating young flower buds of homozygous OPR3 mutant endive", "type": "in vivo", "conditions": "for restoration of male fertility in F2 generation: F2 of cross of endive of the invention x wild-type endive, treatment as described in Example 3; for overcoming male sterility caused by the opr3 mutation: homozygous mutant endive, application to flower buds; for flower color of flowers developed from treated flower buds / male fertility (pollen function and seed set through self-pollination): homozygous mutants, daily spraying with 200 μM (0.2 mM) aqueous solution with 0.025% Zipper surfactant; for flower color of flowers developed from treated flower buds: about 3.5 months, untreated or mock-treated flowers pale (FIG. 2); for male fertility (pollen function and seed set through self-pollination): controls remained male-sterile", "text": "A mutant endive plant (Cichorium endivia), having a mutated version of the OPR3 gene, was obtained by means of chemical mutagenesis and subsequent TILLING screening of about 10,000 M2 plants.\nPhenotypically this mutant endive plant was indistinguishable from wild-type endive plants, when the mutation was present in a heterozygous state. […] The pollen grains that developed in such homozygous mutants were unable to germinate and therefore dysfunctional.\nBlue was the wild-type flower color in this endive background."}, "[3]": {"tested_on": "Arabidopsis thaliana with mutations in the OPR3 gene", "conditions": "treating flower buds; cited from earlier work"}},
  "data": [
    {"smiles": "CC/C=C\\C[C@H]1C(=O)CC[C@@H]1CC(=O)O", "note": "[jasmonic acid, (3R,7S)-jasmonic acid]", "values": [
      {"measurement": "restoration of male fertility in F2 generation", "setting": "[1]", "value": "sufficient to restore male fertility"},
      {"measurement": "restoration of male fertility in F2 generation", "setting": "[2]", "value": "sufficient to restore male fertility"},
      {"measurement": "overcoming male sterility caused by the opr3 mutation", "setting": "[2]", "value": "had the same effect"}
    ]},
    {"smiles": "CC/C=C\\CC1C(=O)CCC1CC(=O)OC", "note": "(stereo not drawn) [methyl jasmonate]", "values": [
      {"measurement": "restoration of male fertility in F2 generation", "setting": "[1]", "value": "sufficient to restore male fertility"},
      {"measurement": "seed production through selfing", "setting": "[1]; homozygous mutants", "value": "has produced seeds through selfing"},
      {"measurement": "seed production through selfing", "setting": "[1]; homozygous mutants, listed as MeJA", "value": "produced seeds in a subset of their flowers"},
      {"measurement": "restoration of male fertility", "setting": "[1]; homozygous mutants, young flower buds sprayed with 200 μM (0.2 mM) aqueous solution plus 0.025% Zipper surfactant, 5 times per week for 3 weeks", "value": "sufficient to restore male fertility"},
      {"measurement": "restoration of male fertility in F2 generation", "setting": "[2]", "value": "sufficient to restore male fertility"},
      {"measurement": "overcoming male sterility caused by the opr3 mutation", "setting": "[2]", "value": "could be overcome"},
      {"measurement": "flower color of flowers developed from treated flower buds", "setting": "[2]", "value": "changed to blue"},
      {"measurement": "flower color of flowers developed from treated flower buds", "setting": "[2]; listed as MeJA", "value": "developed into blue flowers"},
      {"measurement": "male fertility (pollen function and seed set through self-pollination)", "setting": "[2]", "value": "has become male-fertile"},
      {"measurement": "male fertility (pollen function and seed set through self-pollination)", "setting": "[2]; listed as MeJA", "value": "produced viable, functional pollen and were able to set seed through self-pollination"},
      {"measurement": "effect of other application methods than spraying", "setting": "[2]; solution painted onto the surface of young flower buds with a fine brush", "value": "comparable effects"},
      {"measurement": "restoration of male fertility", "setting": "[3]", "value": "Male fertility could be restored"}
    ]}
  ]
}
